Laboratory results taken from patent publication US20110195924A1, “Methods of Inhibiting the Interaction Between S100P and the Receptor for Advanced Glycation End-Products” (priority 2008, published 2011).
Entries after “also recorded” stand apart in the source; their conditions may differ.

What was measured:
MPanc96 tumors = assay: MPanc96 pancreatic tumor growth and survival in mice (analogs); format: in vivo; conditions: mouse, in vivo
Experimental: (§1) Various cromolyn-based analogs were developed. The effects of the analogs on binding of S100P with RAGE were evaluated for the analogs using a sandwich ELISA. The effectiveness of the analogs to block cancer cell proliferatin and increase apoptosis in vitro were analyzed with and without cisplatin, 5-flurouracil and gemcitabine by MTS and FACS analysis. We also examined the ability of the analogs to inhibit S100P activation of NFkB signaling in cancer cells in vitro and in vivo. Finally, the effects of the novel analogs on tumor growth in vivo was evaluated. One analog, C5OH is shown below:
Animals were implanted with MPanc96 cells, a gemcitabine resistant model of pancreatic cancer, and then treated with gemcitabine, C5OH, or the combination. […] Noteworthy, the addition of the hydroxyl group to the carbon chain in C5 allows easy modifications of this molecule. The hydroxyl can be substituted with fluoride that can be labeled for in vivo PET imaging. This hydroxyl can also be used to develop a pro-drug form of C5 by attaching other components with an ester bond.

NFkB activity = assay: S100P induced NFkB activity in cancer cells (analogs); format: cell-based
Experimental: Various cromolyn-based analogs were developed. The effects of the analogs on binding of S100P with RAGE were evaluated for the analogs using a sandwich ELISA. The effectiveness of the analogs to block cancer cell proliferatin and increase apoptosis in vitro were analyzed with and without cisplatin, 5-flurouracil and gemcitabine by MTS and FACS analysis. We also examined the ability of the analogs to inhibit S100P activation of NFkB signaling in cancer cells in vitro and in vivo. Finally, the effects of the novel analogs on tumor growth in vivo was evaluated.

NFκB activity = assay: S100P stimulated NFκB luciferase reporter in MPanc-96 cells; format: cell-based, Human; conditions: S100P 100 nM, 5 hours
Experimental: MPanc-96 pancreatic cancer cell lines stably expressing an NFκB luciferase reporter were examined for the effects of S100P, cromolyn and C5. Cells were plated at 5.0×10^3 cells/well, treated for 5 hours with 100 nM of S100P, with or without cromolyn and C5 (1 μM), and activity of a luciferase gene driven by the NFkB promoter was analyzed. P=0.05 C5 versus cromolyn. Two-tailed two-sample (unpaired) Student's t-tests were used to determine P values.

BxPC-3 cells = assay: BxPC-3 cell viability, alone or with gemcitabine; format: cell-based; conditions: 72 hours
Experimental: BxPC-3 cells were plated at 1.0×10^3 cells/well and treated with 0 μM, 1 μM, 10 μM, and 100 μM of cromolyn or C5 alone or in combination with gemcitabine 1 μM and cell viability was analyzed after 72 hours. Two-tailed two-sample (unpaired) Student's t-tests were used to determine P values. […] BxPC-3 cells were plated at 1.0×10^3 cells/well and treated with either 100 μM of cromolyn or 1 μM C5 alone or in combination with gemcitabine (1 μM) and cell viability was analyzed after 72 hours.

S100B with RAGE = biological target: T1, S100B with RAGE (Homo sapiens, UniProt P04271); assay: ELISA of S100B binding to RAGE (sRAGE coated plate)
T1 sequence (P04271 1-92): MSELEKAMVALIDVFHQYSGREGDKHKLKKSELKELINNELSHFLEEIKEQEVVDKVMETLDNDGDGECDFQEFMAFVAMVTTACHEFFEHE
From the text: After removing un-bound S100B by washing with detergent, bound S100B and RAGE complex was quantified by adding HRP labeled antibody against S100B.

S100P binding with RAGE = biological target: T2, S100P binding with RAGE (Homo sapiens, UniProt P25815); assay: ELISA of S100P binding to RAGE (sRAGE coated plate)
T2 construct: full-length human S100P cDNA (NM_005980) was cloned into the pTrcHis2 vector; His; made in house; host or cells: bacteria (S100P)
T2 sequence (P25815 1-95): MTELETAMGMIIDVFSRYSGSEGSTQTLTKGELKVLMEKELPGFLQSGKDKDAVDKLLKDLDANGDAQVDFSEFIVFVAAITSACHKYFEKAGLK
Experimental: After removing un-bound S100P by washing with detergent, the bound S100P and RAGE complex was quantified by adding HRP labeled antibody against S100P. *, P=0.04 C5 1 μM versus cromolyn 5 μM. Two-tailed two-sample (unpaired) Student's t-tests were used to determine P values.
The plate was washed and the amount of bound S100P was quantitated using anti-S100P antibody.
The binding of S100P to RAGE was determined using an ELISA assay. sRAGE was attached to the dish and recombinant S100P (50 ng) was added with or without the indicated concentrations of cromolyn analogs. The plate was washed and the amount of bound S100P was quantitated using anti-S100P antibody.

MPanc-96 cells = assay: MPanc-96 cell apoptosis by flow cytometry, alone or with gemcitabine; format: cell-based, Human; conditions: 100 and 1000 nM, 72 hours
Experimental: FIG. 11 compares the effects of cromolyn and C5 alone and in combination with gemcitabine on MPanc-96 cell apoptosis. MPanc-96 cells were treated with cromolyn or C5 (100 and 1000 nM) with (+) or without (−) gemcitabine (10 μM). Apoptosis was analyzed after 72 hours by flow cytometry.

pancreatic cancer cells = assay: Apoptosis of pancreatic cancer cells with cromolyn analogs and cytotoxic drugs; format: cell-based
Experimental: as §1
In this in vitro study, pancreatic cancer cells were treated with gemcitabine alone or in the presence of cromolyn analogs. The cromolyn analogs themselves have very little effect on the rates of cellular apoptosis, supporting their absence of general toxicity. However, all cromolyn analogs increased the killing of pancreatic cancer cells by gemcitabine.

## O=C([O-])c1cc(=O)c2c(OCCCCCOc3cccc4oc(C(=O)[O-])cc(=O)c34)cccc2o1.[Na+].[Na+] [C5, disodium 1,5-bis(2-carboxychromon-5-yloxy)pentane]
MPanc96 tumors
  inhibition of tumor growth and survival in vivo, relative to cromolyn: superior to cromolyn
NFkB activity
  inhibition of S100P induced NFkB activity relative to cromolyn: more potently and effectively than did cromolyn
NFκB activity; 1 μM
  reduction of S100P induced NFκB activity relative to cromolyn at the same dose: much better than cromolyn
NFκB activity; compound 1 μM
  NFκB activity in pancreatic cancer cells in vitro: inhibit
BxPC-3 cells; BxPC-3, 1-100 μM with gemcitabine 1 μM
  inhibiting cell viability in combination with gemcitabine, relative to cromolyn: more potent and efficacious
BxPC-3 cells; BxPC-3, 10 or 100 μM
  blocking cell growth alone, relative to cromolyn: more potent and more efficacious than cromolyn
BxPC-3 cells; BxPC-3, gemcitabine 1 μM, FIG. 10
  concentration giving the same level of cell reduction in combination with gemcitabine: 1 µM
BxPC-3 cells; alone and in conjunction with gemcitabine 1 μM
  BxPC-3 cell viability: inhibit
S100B with RAGE
  interaction of S100B with RAGE: inhibit
S100P binding with RAGE
  blocking of the interaction / binding of S100P with RAGE: blocked
S100P binding with RAGE; FIG. 7
  concentration achieving the same level of S100P inhibition: 100 nM
S100P binding with RAGE; analogs at 10-fold lower concentration than cromolyn
  potency in blocking S100P binding to RAGE relative to cromolyn or C5: nearly equally potent and more efficient than cromolyn; also recorded: better than cromolyn
MPanc-96 cells; MPanc-96, gemcitabine 10 μM
  apoptosis in combination with gemcitabine, relative to cromolyn with gemcitabine: induced more apoptosis than cromolyn
MPanc-96 cells; alone and in conjunction with gemcitabine 10 μM
  MPanc-96 cell viability: inhibit
Pancreatic cancer cells
  cancer cell apoptosis in response to various cytoxic treatments, relative to cromolyn: at lesser concentrations and to a greater extent than did cromolyn
Pancreatic cancer cells; with gemcitabine, C5 and C5OH at 10-fold lower concentration than cromolyn
  killing of pancreatic cancer cells by gemcitabine: worked equally well
